In patent US12083094B2, “Cannabinoid composition and methods of treatment using the same” (CANNPAL ANIMAL THERAPEUTICS LIMITED, priority 2018, dated 2024):

Test: Blood sampling for THC and CBD plasma concentration after single oral dosing
Conditions: for concentration at 0 h / concentration at 1 h / concentration at 1.5 h / concentration at 2 h / concentration at 3 h / concentration at 4 h / concentration at 12 h / concentration at 16 h / concentration at 24 h / concentration at 72 h / concentration at 0.67 h / concentration at 6 h / concentration at 8 h / concentration at 32 h / concentration at 48 h: oral, THC level in blood plasma fraction; for AUC: AUC for THC concentration, canine
Procedure: Two compositions, IVP1 and IVP2, were administered in varying amounts in the study.
Dosage volumes were calculated prior to Day 0, to provide the target dosage in mg/kg bodyweight based on actual dog bodyweights and IVP active ingredient composition based on the Certificates of Analysis.
Blood samples of approximately 5 mL were collected at each drug concentration sampling time-point from each animal using 22-gauge needles and 5 mL syringes.
The data points from Table 4 and Table 5 were also plotted and these graphs are set out in FIGS. 1-16.

[1] = dog, plasma, individual dogs 1-4, 0.24 mg/kg THC + 0.12 mg/kg CBD oral once
[2] = dog, plasma, individual dogs 5-8, 0.12 mg/kg THC + 0.24 mg/kg CBD oral once
[3] = dog, plasma, mean of dogs 1-4, 0.24 mg/kg THC + 0.12 mg/kg CBD oral once
[4] = dog, plasma, mean of dogs 5-8, 0.12 mg/kg THC + 0.24 mg/kg CBD oral once

CCCCCc1cc(O)c2c(c1)OC(C)(C)[C@@H]1CCC(C)=C[C@@H]21 [THC, Δ^9-Tetrahydrocannabinol]
THC in the subject's blood (72 h after administration): detectable
concentration at 0 h [1]: 0 ng/mL
concentration at 1 h [1]: 45.2 ng/mL
concentration at 1.5 h [1]: 30.1 ng/mL
concentration at 2 h [1]: 25.6 ng/mL
concentration at 0 h [2]: 0 ng/mL
concentration at 2 h [2]: 22.3 ng/mL
concentration at 3 h [2]: 8.19 ng/mL
concentration at 4 h [2]: 4.19 ng/mL
concentration at 12 h [2]: 0.56 ng/mL
concentration at 16 h [2]: 0.34 ng/mL
concentration at 24 h [2]: 0.23 ng/mL
concentration at 72 h [2]: 0 ng/mL
concentration at 0 h [3]: 0 ng/mL
concentration at 0.67 h [3]: 39 ng/mL
concentration at 1 h [3]: 40.7 ng/mL
concentration at 1.5 h [3]: 32.6 ng/mL
concentration at 2 h [3]: 26.1 ng/mL
concentration at 3 h [3]: 15.8 ng/mL
concentration at 4 h [3]: 10.1 ng/mL
concentration at 6 h [3]: 6.33 ng/mL
concentration at 8 h [3]: 3.98 ng/mL
concentration at 12 h [3]: 1.36 ng/mL
concentration at 16 h [3]: 0.75 ng/mL
concentration at 24 h [3]: 0.41 ng/mL
concentration at 32 h [3]: 0.43 ng/mL
concentration at 48 h [3]: 0.24 ng/mL
concentration at 72 h [3]: 0.16 ng/mL
concentration at 0 h [4]: 0 ng/mL
concentration at 0.67 h [4]: 27.9 ng/mL
concentration at 1 h [4]: 36.8 ng/mL
concentration at 1.5 h [4]: 27.7 ng/mL
concentration at 2 h [4]: 18 ng/mL
concentration at 3 h [4]: 7.84 ng/mL
concentration at 4 h [4]: 4.29 ng/mL
concentration at 6 h [4]: 3 ng/mL
concentration at 8 h [4]: 2.38 ng/mL
concentration at 12 h [4]: 0.65 ng/mL
concentration at 16 h [4]: 0.44 ng/mL
concentration at 24 h [4]: 0.28 ng/mL
concentration at 32 h [4]: 0.28 ng/mL
concentration at 48 h [4]: 0.09 ng/mL
concentration at 72 h [4]: 0 ng/mL
AUC(0-inf) (dog, plasma, po): 0.6 ng·h/mL
Cmax (dog, plasma, po): 19 to 71.3 ng/mL
half-life (dog, plasma, po): 18.4 h
AUC (dog, plasma, po, 0.12 mg/kg, 0.12 mg/kg THC in combination with 0.24 mg/kg CBD): 90 to 110 ng·h/mL
AUC (dog, plasma, po, 0.24 mg/kg, 0.24 mg/kg THC in combination with 0.12 mg/kg CBD): 145 to 170 ng·h/mL
